From patent US6534041B1, “Acid-labile and enzymatically divisible dye compounds for diagnosis with near infrared light and for therapy” (Institute for Diagnostic Research GmbH of the Free …, priority 1997, dated 2003)

Tests used:
[1] = VIS/NIR absorption; assay type: physicochemical; conditions: H2O
[2] = in DMSO; according to Benson and Kues 1977; cited from earlier work

Absorption λmax [1]	Absorption coefficient ξ at λmax ([1]; 748 nm)	Structure (SMILES)	Fluorescence quantum yield Q (standard) [2]
748 nm	14,800 1 mol^−1 cm^−1	CC(=O)c1ccc2c(c1)C(C)(C)C(C=CC=CC=CC=C1N(CCCCS(=O)(=O)[O-])c3ccccc3C1(C)C)=[N+]2CCCCS(=O)(=O)[O-].[Na+] [compound 1, 5-(1-oxoethyl)-1,1′-(4-sulfobutyl)-indotricarbocyanine-sodium salt]	–
–	–	CC1(C)C(/C=C/C=C/C=C/C=C2\N(CCCCS(=O)(=O)O)c3ccc4ccccc4c3C2(C)C)=[N+](CCCCS(=O)(=O)[O-])c2ccc3ccccc3c21 [indocyanine green]	13%
